Measured values: patent publication EP0240392A1, “Compounds of the cyclophosphazene type, process for their preparation and pharmaceutical preparation containing them” (CENTRE NATIONAL DE LA RECHERCHE SCIENTIFIQUE (CNRS), priority 1986, dated 1987)
Where two headings read alike, the source gives them in different places.

What was measured:
ERYTH[…] K562 = assay: Growth of human erythroleukemia K562 in vitro; assay type: cell-based, humaine
LEUCEMIE L1210 = assay: Antitumour activity on L1210 leukemia implanted i.p. in mice; assay type: in vivo, souris CD2F1; design: key to T/C (%): Δ: 2 souris mortes avant le 5ème jour, 1 souris au jour 6, 2 souris au jour 16 et la dernière était encore vivante après le 40ème jour
Text: Les tests d'activité antitumorale ont été conduits au sein du Screening and Pharmacology Group de l'E.O.R.T.C., implanté à l'Institut Mario Negri de Milan.
Ces essais ont été conduits soit en mono-injection à différentes doses au jour J+1 suivant la greffe de la tumeur, soit en poly-injections chroniques Q1D, soit en protocoles Q4D.
L'activité antitumorale est mesurée par le rapport T/C %, T (en jours) étant le durée moyenne de vie des souris traitées, C (en jours) étant la durée moyenne de vie des souris témoins.
L'effet thérapeutique est considéré comme significatif quant T/C % est supérieur ou égal à 125.

[1] = Acute toxicity i.p. in mice (DLo, maximal non-lethal dose); assay type: in vivo, souris mâles Swiss ou CD2F1
Description: La toxicité de SPM a été déterminée sur des souris mâles Swiss ou CD2F1. La léthalité, quand elle existe, apparaît systématiquement aux jours 5 et 6 après l'adminstration par voie i.p. L'enregistrement de cette léthalité en fonction de la dose injectée permet de déduire la DLo qui est la dose maximale non léthale. La même valeur de DLo a été obtenue chez les Swiss et les CD2F1 : elle a été trouvée égale à 1 500 mg/kg. C'est là un résultat remarquable.

[2] = Solubility in water and physiological serum; assay type: physicochemical
Text: La solubilité dans l'eau et dans le sérum physiologique est supérieure à 20 g/l ce qui est donc largement suffisant pour la réalisation de formes injectables.

C(CCN1CCCNP12=NP(N1CC1)(N1CC1)=NP(N1CC1)(N1CC1)=N2)CN1CCCNP12=NP(N1CC1)(N1CC1)=NP(N1CC1)(N1CC1)=N2 (centres unmarked) [SPM]
Nombre de cellules x 10^4 (ERYTH[…] K562; 0,01 µg/ml, 24 heures): 20,7 ± 1,7 x 10^4 | Nombre de cellules x 10^4 (ERYTH[…] K562; 0,1 µg/ml, 24 heures): 17,8 ± 1,7 x 10^4 | Nombre de cellules x 10^4 (ERYTH[…] K562; 0,01 µg/ml, 48 heures): 41,5 ± 1,6 x 10^4 | Nombre de cellules x 10^4 (ERYTH[…] K562; 0,1 µg/ml, 48 heures): 37,2 ± 4,5 x 10^4 | Nombre de cellules x 10^4 (ERYTH[…] K562; 0,01 µg/ml, 72 heures): 60,7 ± 5,8 x 10^4 | Nombre de cellules x 10^4 (ERYTH[…] K562; 0,1 µg/ml, 72 heures): 60,6 ± 5,4 x 10^4 | Nombre de cellules x 10^4 (ERYTH[…] K562; 1 µg/ml, 24 heures): 17,8 ± 3,3 x 10^4 | Nombre de cellules x 10^4 (ERYTH[…] K562; 1 µg/ml, 48 heures): 36,4 ± 1,8 x 10^4 | Nombre de cellules x 10^4 (ERYTH[…] K562; 1 µg/ml, 72 heures): 50,9 ± 4,3 x 10^4 | Nombre de cellules x 10^4 (ERYTH[…] K562; 5 µg/ml, 24 heures): 17,3 ± 1,4 x 10^4 | Nombre de cellules x 10^4 (ERYTH[…] K562; 5 µg/ml, 48 heures): 20,9 ± 2,1 x 10^4 | Nombre de cellules x 10^4 (ERYTH[…] K562; 5 µg/ml, 72 heures): 35,5 ± 2,0 x 10^4 | Nombre de cellules x 10^4 (ERYTH[…] K562; 10 µg/ml, 24 heures): 17,4 ± 0,9 x 10^4 | Nombre de cellules x 10^4 (ERYTH[…] K562; 10 µg/ml, 48 heures): 21,1 ± 0,2 x 10^4 | Nombre de cellules x 10^4 (ERYTH[…] K562; 10 µg/ml, 72 heures): 26,9 ± 2,3 x 10^4 | Nombre de cellules x 10^4 (ERYTH[…] K562; 50 µg/ml, 24 heures): 13,2 ± 1,7 x 10^4 | Nombre de cellules x 10^4 (ERYTH[…] K562; 50 µg/ml, 48 heures): 15,0 ± 1,5 x 10^4 | Nombre de cellules x 10^4 (ERYTH[…] K562; 50 µg/ml, 72 heures): 17,4 ± 1,3 x 10^4 | Nombre de cellules x 10^4 (ERYTH[…] K562; 100 µg/ml, 24 heures): 11,6 ± 0,4 x 10^4 | Nombre de cellules x 10^4 (ERYTH[…] K562; 100 µg/ml, 48 heures): 14,7 ± 0,1 x 10^4 | Nombre de cellules x 10^4 (ERYTH[…] K562; 100 µg/ml, 72 heures): 15,0 ± 0,8 x 10^4 | effet sur la croissance in vitro de l'érythroleucémie humaine K562 (result in words) (ERYTH[…] K562; in vitro, MYCLAz: même à dose toxique): inhibe d'une manière très remarquable la croissance in vitro | amplitude de la plage de doses à effet significatif (ERYTH[…] K562; ratio of highest to lowest significant dose): ≥ 10 000 | T/C (%) (LEUCEMIE L1210; Tableau 1, 25 mg/kg i.p. x j 1,5,9): 117% | T/C (%) (LEUCEMIE L1210; Tableau 1, 25 mg/kg i.p. x j 1-9): 131% | T/C (%) (LEUCEMIE L1210; Tableau 1, 50 mg/kg i.p. x j 1): 131% | T/C (%) (LEUCEMIE L1210; Tableau 1, 50 mg/kg i.p. x j 1,5,9): 131% | T/C (%) (LEUCEMIE L1210; Tableau 1, 50 mg/kg i.p. x j 1-9): 150% | T/C (%) (LEUCEMIE L1210; Tableau 1, 75 mg/kg i.p. x j 1-9): 140% | T/C (%) (LEUCEMIE L1210; Tableau 1, 100 mg/kg i.p. x j 1): 125% | T/C (%) (LEUCEMIE L1210; Tableau 1, 100 mg/kg i.p. x j 1,5,9): 137% | T/C (%) (LEUCEMIE L1210; Tableau 1, 100 mg/kg i.p. x j 1-9): 140% | T/C (%) (LEUCEMIE L1210; Tableau 1, 150 mg/kg i.p. x j 1-9): 170% | T/C (%) (LEUCEMIE L1210; Tableau 1, 200 mg/kg i.p. x j 1): 156% | T/C (%) (LEUCEMIE L1210; Tableau 1, 200 mg/kg i.p. x j 1,5,9): 159% | T/C (%) (LEUCEMIE L1210; Tableau 1, 300 mg/kg i.p. x j 1): 135% | T/C (%) (LEUCEMIE L1210; Tableau 1, 300 mg/kg i.p. x j 1,5,9): 164% | T/C (%) (LEUCEMIE L1210; Tableau 1, 400 mg/kg i.p. x j 1): 130% | T/C (%) (LEUCEMIE L1210; Tableau 1, 12,5 mg/kg i.p. x j 1-9): 112% | T/C (%) (LEUCEMIE L1210; Tableau 10, 25 mg/kg i.p. x j 1-9): 141% | T/C (%) (LEUCEMIE L1210; Tableau 10, 50 mg/kg i.p. x j 1,5,9): 123% | T/C (%) (LEUCEMIE L1210; Tableau 10, 50 mg/kg i.p. x j 1-9): 152% | T/C (%) (LEUCEMIE L1210; Tableau 10, 100 mg/kg i.p. x j 1): 135% | T/C (%) (LEUCEMIE L1210; Tableau 10, 100 mg/kg i.p. x j 1,5,9): 152% | T/C (%) (LEUCEMIE L1210; Tableau 10, 100 mg/kg i.p. x j 1-9): 170% | T/C (%) (LEUCEMIE L1210; Tableau 10, 150 mg/kg i.p. x j 1,5,9): 176% | T/C (%) (LEUCEMIE L1210; Tableau 10, 150 mg/kg i.p. x j 1-9): 182% | T/C (%) (LEUCEMIE L1210; Tableau 10, 200 mg/kg i.p. x j 1): 147% | T/C (%) (LEUCEMIE L1210; Tableau 10, 250 mg/kg i.p. x j 1,5,9): 194% | T/C (%) (LEUCEMIE L1210; Tableau 10, 300 mg/kg i.p. x j 1): 158% | T/C (%) (LEUCEMIE L1210; Tableau 10, 400 mg/kg i.p. x j 1): Δ | activité sur la leucémie L1210 (result in words) (LEUCEMIE L1210; quel que soit le protocole utilisé): relativement faible | DLo (dose maximale non léthale) ([1]; souris mâles CD2F1, i.p.): 1 500 mg/kg | DLo (dose maximale non léthale) ([1]; souris mâles Swiss, i.p.): 1 500 mg/kg | solubility ([2]; serum, sérum physiologique, read-out: solubilité dans le sérum physiologique): > 20 mg/mL | solubility ([2]; water, eau, read-out: solubilité dans l'eau): > 20 mg/mL
